Reference: US9895330B2, “IDO inhibitors” (BRISTOL-MYERS SQUIBB COMPANY, priority 2013, dated 2018)
pIC50: −log10 of the molar value.

Target: T1, Human IDO1 (Homo sapiens, UniProt P14902)
T1 construct: expressed in transfected cells; host or cells: HEK293
Experiment: IDO Kynurenine Assay with Human IDO1/HEK293 Cells
Assay type: cell-based
Details: 20 hours incubation, kynurenine absorbance at 490 nm, read-out: HEK human IDO-1 (IC50)
Description: IDO Kynurenine Assay with Human IDO1/HEK293 Cells
Human IDO1/HEK293 cells were seeded at 10,000 cells per 50 uL per well with RPMI/phenol red free media contains 10% FBS in a 384-well black wall clear bottom tissue culture plate (Matrix Technologies LLC) 125 nL of certain concentration of compound was then added to each well using ECHO liquid handling systems. The cells were incubated for 20 hours in 37° C. incubator with 5% CO2.
(§1) The compound treatments were stopped by adding Trichloroacetic Acid (Sigma-Aldrich) to a final concentration at 0.2%. The cell plate was further incubated at 50° C. for 30 minute. The equal volume supernatant (20 uL) and 0.2% (w/v) Ehrlich reagent (4-dimethylaminobenzaldehyde, Sigma-Aldrich) in glacial acetic acid were mixed in a new clear bottom 384-well plate. This plate was then incubated at room temperature for 30 minute. The absorbance at 490 nm was measured on Envision plate reader.
Compound IC50 values were calculated using the counts of 500 nM of a reference standard treatment as one hundred percent inhibition, and counts of no compound but DMSO treatment as zero percent inhibition.

T1 sequence (P14902 whole entry): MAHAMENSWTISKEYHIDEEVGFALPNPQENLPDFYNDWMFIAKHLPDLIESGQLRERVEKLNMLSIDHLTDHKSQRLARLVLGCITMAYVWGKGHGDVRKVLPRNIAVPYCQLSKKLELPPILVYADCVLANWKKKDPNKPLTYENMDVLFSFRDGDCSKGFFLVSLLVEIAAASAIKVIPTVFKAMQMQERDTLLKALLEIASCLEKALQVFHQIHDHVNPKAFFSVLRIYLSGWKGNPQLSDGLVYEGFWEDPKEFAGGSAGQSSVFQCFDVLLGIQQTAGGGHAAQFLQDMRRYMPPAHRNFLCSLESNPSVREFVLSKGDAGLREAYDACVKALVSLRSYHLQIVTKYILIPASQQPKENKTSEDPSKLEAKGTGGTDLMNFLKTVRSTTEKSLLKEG

Row | pIC50 | Structure (SMILES)
1 | 6.57 | N#Cc1ccc(CC(=O)Nc2cc(-c3ccccc3-c3nnn[nH]3)ccc2N(CCCC(F)(F)F)C2CCCCC2)cc1 [Example 71]
2 | 5.68 | N#Cc1ccc(CC(=O)Nc2cc(-c3ccccc3C(=O)O)ccc2N(CCCC(F)(F)F)C2CCCCC2)cc1 [Example 73]
3 | 8.00 | Cc1ccc(CC(=O)Nc2cc(-c3ccccc3-c3nnn[nH]3)ccc2N(Cc2ccccc2)CC(C)C)cc1 [Example 74]
4 | 7.70 | CC(C)CN(CC(C)C)c1ccc(-c2ccccc2-c2nnn[nH]2)cc1NC(=O)Cc1ccc(Cl)nc1 [Example 67]
5 | 5.73 | N#Cc1ccc(CC(=O)Nc2cc(-c3cc(F)ccc3C(=O)O)ccc2N(CCCC(F)(F)F)C2CCCCC2)cc1 [Example 72]
6 | 7.52 | CC(C)CN(c1cc(F)c(-c2ccccc2C(=O)O)cc1NC(=O)Cc1ccc(C#N)cc1)C1CCCCC1 [Example 84]
7 | 6.52 | Cc1cc(CC(=O)Nc2cc(-c3cc(F)ccc3C(=O)O)ccc2N(CC(C)C)C2CCCCC2)on1 [Example 77]
8 | 6.77 | CC(C)CN(CCOC(C)C)c1ccc(-c2ccccc2-c2nnn[nH]2)cc1NC(=O)Cc1ccc(C#N)cc1 [Example 69]
9 | 6.96 | O=C(Cc1ccccc1C(F)(F)F)Nc1cc(-c2ccccc2-c2nnn[nH]2)ccc1N1CC2CC1CN2Cc1ccccc1 (stereo not drawn) [Example 81]
10 | 5.32 | CC(C)CN(CCOC(C)C)c1ccc(-c2ccccc2C(=O)O)cc1NC(=O)Cc1ccc(C#N)cc1 [Example 68]
11 | 6.85 | Cc1cc(CC(=O)Nc2cc(-c3cc(F)ccc3C(=O)O)c(F)cc2N(CC(C)C)C2CCCCC2)on1 [Example 87]
12 | 7.40 | CC(C)CN(c1cc(F)c(-c2ccccc2-c2nnn[nH]2)cc1NC(=O)Cc1ccc(C#N)cc1)C1CCCCC1 [Example 85]
13 | 7.70 | CC(C)CN(CC(C)C)c1ccc(-c2ccccc2-c2nnn[nH]2)cc1NC(=O)Cc1ccsc1 [Example 66]
14 | 5.53 | CC(C)CN(CCOC(C)C)c1ccc(-c2cc(F)ccc2C(=O)O)cc1NC(=O)Cc1ccc(C#N)cc1 [Example 70]
15 | 8.29 | Cc1ccc(CC(=O)Nc2cc(-c3ccccc3-c3nnn[nH]3)ccc2N2CC3CC2CN3Cc2ccccc2)cc1 (stereo not drawn) [Example 80]

The next lines start with the compound.

Row | Structure (SMILES) | pIC50
16 | COC(C)(C)CCN(c1ccc(-c2ccccc2-c2nnn[nH]2)cc1NC(=O)Cc1ccc(C)nc1)C1CCCCC1 [Example 56] | 5.13
17 | Cc1ccc(CC(=O)Nc2cc(-c3ccccc3-c3nnn[nH]3)cc(F)c2N(CC(C)C)C2CCCCC2)cc1 [Example 58] | 8.00
18 | CC(C)CN(CC(C)C)c1ccc(-c2ccccc2-c2nnn[nH]2)cc1NC(=O)Cc1ccc(I)cc1 [Example 49, N-(4-(diisobutylamino)-2′-(1H-tetrazol-5-yl)-[1,1′-biphenyl]-3-yl)-2-(4-iodophenyl)acetamide] | 8.50
19 | CCC(CC)N(CC(C)C)c1ccc(-c2ccccc2-c2nnn[nH]2)cc1NC(=O)Cc1ccc(C)cc1 [Example 63] | 8.36
20 | CC(C)CN(CC(C)C)c1ccc(-c2ccccc2-c2nnn[nH]2)cc1NC(=O)Cc1cccs1 [Example 65] | 7.70
21 | Cc1ccc(CC(=O)Nc2cc(-c3ccccc3-c3nnn[nH]3)ccc2N(CC(C)C)CC(C)C)cn1 [Example 55] | 6.92
22 | CC(C)CN(CC(C)C)c1ccc(-c2ccccc2-c2nnn[nH]2)cc1NC(=O)Cc1cc(Br)cs1 [Example 64] | 7.40
23 | Cc1ccc(CC(=O)Nc2cc(-c3ccccc3C(=O)O)cc(F)c2N(CC(C)C)C2CCCCC2)cc1 [Example 59] | 7.10
24 | Cc1ccc(CC(=O)Nc2cc(-c3cc(F)ccc3C(=O)O)cc(F)c2N(CC(C)C)C2CCCCC2)cc1 [Example 60] | 7.52
25 | CC(C)CN(CC(C)C)c1ccc(-c2ccccc2-c2nnn[nH]2)cc1NC(=O)Cc1ccc(F)cc1 [Example 12, N-(4-(diisobutylamino)-2′-(1H-tetrazol-5-yl)biphenyl-3-yl)-2-(4-fluorophenyl)acetamide] | 8.52
26 | CCC(CC)N(CC(C)C)c1ccc(-c2ccccc2C(=O)O)cc1NC(=O)Cc1ccc(C)cc1 [Example 62] | 7.70
27 | CC(C)CN(CC(C)C)c1ccc(-c2ccccc2-c2nnn[nH]2)cc1NC(=O)Cc1ccncc1 [Example 57] | 6.44
28 | CCC(CC)N(CC(C)C)c1ccc(-c2cc(F)ccc2C(=O)O)cc1NC(=O)Cc1ccc(C)cc1 [Example 61] | 7.70

Target: T2, IDO (IFNγ-treated Hela cells) (Homo sapiens, UniProt P14902)
T2 construct: endogenous in cells; host or cells: Hela cells treated with IFNγ (10 ng/ml)
Experiment: IDO Kynurenine Assay with Hela Cells
Assay type: cell-based
Details: IFNγ 10 ng/ml, 20 hours incubation, kynurenine absorbance at 490 nm, read-out: Hela Cells LLE_IDO_ABS_DR (IC50)
Description: IDO Kynurenine Assay with Hela Cells
Hela cells were seeded at 30,000 cells per well in 40 ul RPMI/phenol red free media contains 10% FBS in a 384-well black wall clear bottom tissue culture plate (Matrix Technologies LLC). 270 nl of certain concentration of compound was then added to each well using ECHO liquid handling systems. 40 ul of IFNγ (R&D, 285-IF-100) at final concentration of 10 ng/ml was then added to column 2-24 with media to column 1 as control. The cells were incubated for 20 hours in 37° C. incubator with 5% CO2.
as §1, with “trichloroacetic acid” for “Trichloroacetic Acid”
Compound IC50 values were calculated using the counts of no IFNγ control as one hundred percent inhibition, and counts of no compound but DMSO treatment as zero percent inhibition.

T2 sequence (P14902 whole entry): as above

Row | pIC50 | Structure (SMILES)
29 | 8.51 | Cc1ccc(CC(=O)Nc2cc(-c3ccccc3-c3nnn[nH]3)ccc2N(Cc2ccccc2)CC(C)C)cc1 [Example 74]
30 | 7.00 | O=C(Cc1ccccc1C(F)(F)F)Nc1cc(-c2ccccc2-c2nnn[nH]2)ccc1N1CC2CC1CN2Cc1ccccc1 (stereo not drawn) [Example 81]
31 | 5.74 | Cc1ccc(CC(=O)Nc2cc(-c3ccccc3-c3nnn[nH]3)ccc2N2CCC(F)(F)C2)cc1 [Example 75]
32 | 8.07 | Cc1ccc(CC(=O)Nc2cc(-c3ccccc3-c3nnn[nH]3)ccc2N2CC3CC2CN3Cc2ccccc2)cc1 (stereo not drawn) [Example 80]

The remaining lines, values behind:

Row | Structure (SMILES) | pIC50
33 | Cc1ccc(CC(=O)Nc2cc(-c3ccccc3-c3nnn[nH]3)ccc2N(CC(C)C)CC(C)C)cc1 [Example 2, N-(4-(Diisobutylamino)-2′-(1H-tetrazol-5-yl)biphenyl-3-yl)-2-p-tolylacetamide] | 8.30
34 | CC(C)CN(CC(C)C)c1ccc(-c2ccccc2-c2nnn[nH]2)cc1NC(=O)Cc1ccc(F)cc1 [Example 12, N-(4-(diisobutylamino)-2′-(1H-tetrazol-5-yl)biphenyl-3-yl)-2-(4-fluorophenyl)acetamide] | 8.00
35 | CC(C)CN(Cc1ccccc1)c1ccc(-c2ccccc2-c2nnn[nH]2)cc1NC(=O)Cc1ccc(C#N)cc1 [Example 54] | 8.00
36 | CC(C)CN(c1ccc(-c2ccccc2C(=O)O)cc1NC(=O)Cc1ccccc1C(F)(F)F)C1CCCCC1 [Example 8, 4′-(cyclohexyl(isobutyl)amino)-3′-(2-(2-(trifluoromethyl)phenyl)acetamido)biphenyl-2-carboxylic acid] | 6.03
37 | CC(C)CN(CC(C)C)c1ccc(-c2ccccc2-c2nnn[nH]2)cc1NC(=O)Cc1ccc2c(c1)OCO2 [Example 14, 2-(benzo[d][1,3]dioxol-5-yl)-N-(4-(diisobutylamino)-2′-(1H-tetrazol-5-yl)biphenyl-3-yl)acetamide] | 7.70
38 | CC(C)CN(c1ccc(-c2ccccc2C(=O)O)cc1NC(=O)Cc1ccccc1F)C1CCCCC1 [Example 5, 4′-(cyclohexyl(isobutyl)amino)-3′-(2-(2-fluorophenyl)acetamido) biphenyl-2-carboxylic acid] | 7.40
39 | CC(C)CN(CC(C)C)c1ccc(-c2ccccc2-c2nnn[nH]2)cc1NC(=O)CC#N [Example 23] | 6.55
40 | Cc1ccc(CC(=O)Nc2cc(-c3ccccc3-c3nnn[nH]3)ccc2N(CC(C)C)CC(C)C)c(F)c1 [Example 20, N-(4-(diisobutylamino)-2′-(1H-tetrazol-5-yl)biphenyl-3-yl)-2-(2-fluoro-4-methylphenyl)acetamide] | 8.04
41 | CC(C)CN(c1ccc(-c2ccccc2-c2nnn[nH]2)cc1NC(=O)Cc1ccccc1C(F)(F)F)C1CCCCC1 [Example 7, N-(4-(cyclohexyl(isobutyl)amino)-2′-(1H-tetrazol-5-yl)biphenyl-3-yl)-2-(2-(trifluoromethyl)phenyl)acetamide] | 6.89
42 | CC(C)CN(Cc1ccccc1)c1ccc(-c2ccccc2-c2nnn[nH]2)cc1NC(=O)[C@H](O)c1ccccc1 [Example 48, (R)—N-(4-(Benzyl(isobutyl)amino)-2′-(1H-tetrazol-5-yl)biphenyl-3-yl)-2-hydroxy-2-phenylacetamide] | 5.79
43 | CC(C)CN(CC(C)C)c1ccc(-c2ccccc2-c2nnn[nH]2)cc1NC(=O)CS(=O)(=O)c1ccccc1 [Example 32] | 5.40
44 | CC(C)CN(c1ccc(-c2cc(F)ccc2C(=O)O)cc1NC(=O)Cc1ccccc1F)C1CCCCC1 [Example 6, 4′-(cyclohexyl(isobutyl)amino)-5-fluoro-3′-(2-(2-fluorophenyl)acetamido) biphenyl-2-carboxylic acid] | 7.30
45 | CC(C)CN(CC(C)C)c1ccc(-c2ccccc2-c2nnn[nH]2)cc1NC(=O)Cc1ccc(Cl)cc1 [Example 17, 2-(4-chlorophenyl)-N-(4-(diisobutylamino)-2′-(1H-tetrazol-5-yl)biphenyl-3-yl)acetamide] | 8.35
